# In patent US20260085094A1, “STAPLED PEPTIDE AND USE THEREOF” (priority 2021, published 2026):
# Legend:
# [1] = target: T1, GLP-1R (Homo sapiens, UniProt P43220); assay: In vitro GLP-1R agonistic activity test (cAMP assay); assay type: cell-based; details: GLP-1R HEK293 cell line
# T1 construct: host or cells: HEK293
# Protocol: (§1) [table] The compounds to be tested were diluted 4-fold at 10 wells, starting from an initial concentration of 30 μM. […] The TopSeal-A film was removed, and readout was performed on EnVision.
# [2] = target: T2, GIPR (Homo sapiens, UniProt P48546); assay: In vitro GIPR agonistic activity test (cAMP assay); assay type: cell-based; details: GIPR CHO cell line, read-out: GIP-1 EC50
# T2 construct: host or cells: CHO
# T2 sequence (P48546 22-466): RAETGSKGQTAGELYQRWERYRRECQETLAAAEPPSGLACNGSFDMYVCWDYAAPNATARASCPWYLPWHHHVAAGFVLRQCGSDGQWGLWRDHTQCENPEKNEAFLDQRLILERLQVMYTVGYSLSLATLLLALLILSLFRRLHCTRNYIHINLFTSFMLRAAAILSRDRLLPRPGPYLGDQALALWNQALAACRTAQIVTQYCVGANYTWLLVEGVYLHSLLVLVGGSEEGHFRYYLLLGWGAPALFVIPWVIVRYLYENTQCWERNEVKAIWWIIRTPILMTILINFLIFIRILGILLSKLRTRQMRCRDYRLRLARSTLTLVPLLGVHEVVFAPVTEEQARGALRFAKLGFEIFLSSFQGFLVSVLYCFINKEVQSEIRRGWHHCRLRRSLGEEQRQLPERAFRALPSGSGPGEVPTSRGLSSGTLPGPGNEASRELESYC
# Protocol: as §1
# [3] = target: T3, GCGR (Homo sapiens, UniProt P47871); assay: In vitro GCGR agonistic activity test (cAMP assay); assay type: cell-based; details: GCGR HEK293 cell line, read-out: GCG EC50
# T3 construct: host or cells: HEK293
# T3 sequence (P47871 26-477, species assumed): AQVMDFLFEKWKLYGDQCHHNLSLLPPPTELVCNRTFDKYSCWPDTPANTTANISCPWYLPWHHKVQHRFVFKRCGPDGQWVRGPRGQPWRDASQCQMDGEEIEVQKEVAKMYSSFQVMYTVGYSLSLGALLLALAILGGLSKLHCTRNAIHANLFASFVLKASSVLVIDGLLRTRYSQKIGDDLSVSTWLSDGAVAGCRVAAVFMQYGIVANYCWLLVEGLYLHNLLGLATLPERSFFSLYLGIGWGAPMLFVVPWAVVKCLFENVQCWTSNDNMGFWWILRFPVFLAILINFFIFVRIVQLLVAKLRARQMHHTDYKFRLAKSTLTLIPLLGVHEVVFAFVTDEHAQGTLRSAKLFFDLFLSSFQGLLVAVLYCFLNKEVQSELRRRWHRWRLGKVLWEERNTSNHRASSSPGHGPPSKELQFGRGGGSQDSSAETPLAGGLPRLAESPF
# Protocol: as §1
# [4] = in vivo; set-up: species or system SD rats; details: rat, sc, 0.048 mg/kg
# Protocol: (§2) To test the in vivo pharmacokinetics of the polypeptides of the present disclosure in SD rats. The pharmacokinetic characteristics of the polypeptides of the present disclosure after subcutaneous injection in rodents were tested according to SOP. In the experiment, the polypeptide was prepared into a clear solution, which was administered to rats by single subcutaneous injection (SC, 0.048 mpk). The vehicle for injection was citrate buffer (20 mM, pH=7). The whole blood was collected and prepared to obtain the plasma. The drug concentration was analyzed by LC-MS/MS method, and the pharmacokinetic parameters were calculated using Phoenix WinNonlin software.
# [5] = in vivo; set-up: species or system C57BL/6 mice; details: sc, 0.048 mg/kg
# Protocol: as §2, with “C57BL/6 mice.” for “SD rats.”, “after intravenous injection and” for “after”, “mice” for “rats”, “for subcutaneous” for “for”
# [6] = in vivo; set-up: species or system cynomolgus macaques; details: cynomolgus monkey, sc, 0.02 mg/kg
# Protocol: as §2, with “cynomolgus macaques.” for “SD rats.”, “after intravenous injection and” for “after”, “mammals” for “rodents”, “cynomolgus macaques” for “rats”, “0.02” for “0.048”, “for subcutaneous” for “for”
# T1 sequence (P43220 24-463, species assumed): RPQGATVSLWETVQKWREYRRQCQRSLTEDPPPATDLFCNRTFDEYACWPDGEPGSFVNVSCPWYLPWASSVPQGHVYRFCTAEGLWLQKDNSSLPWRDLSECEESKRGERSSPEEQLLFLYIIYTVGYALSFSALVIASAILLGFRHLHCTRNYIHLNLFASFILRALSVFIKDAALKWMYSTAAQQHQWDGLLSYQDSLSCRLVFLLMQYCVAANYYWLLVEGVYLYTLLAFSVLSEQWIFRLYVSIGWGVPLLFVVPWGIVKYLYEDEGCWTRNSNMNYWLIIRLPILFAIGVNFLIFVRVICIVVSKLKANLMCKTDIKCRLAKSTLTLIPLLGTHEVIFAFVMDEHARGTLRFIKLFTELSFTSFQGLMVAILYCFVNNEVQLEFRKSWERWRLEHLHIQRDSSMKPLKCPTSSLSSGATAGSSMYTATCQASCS
EC50 [1],EC50 [2],EC50 [3],AUC(0-t) ([4]; SD),Cmax ([4]; SD),Tmax ([4]; SD),half-life ([4]; SD),"AUC(0-t) ([5]; C57BL/6, mouse)","Cmax ([5]; C57BL/6, mouse)","Tmax ([5]; C57BL/6, mouse)","half-life ([5]; C57BL/6, mouse)",AUC(0-t) [6],Cmax [6],Tmax [6],half-life [6],Structure (SMILES),further results
0.072 nM,0.13 nM,0.55 nM,0.718 µM·h,17 nM,24 h,25 h,1.83 µM·h,58 nM,12 h,16 h,5.29 µM·h,49 nM,32 h,61 h,CC[C@H](C)[C@H](NC(=O)[C@H](Cc1ccccc1)NC(=O)[C@H](C)NC(=O)[C@@H]1CCCCNC(=O)CN(C(=O)COCCOCCNC(=O)COCCOCCNC(=O)CC[C@H](NC(=O)CCCCCCCCCCCCCCCCCCC(=O)O)C(=O)O)CC(=O)NCCCC[C@H](NC(=O)[C@H](CCCCN)NC(=O)[C@H](CC(=O)O)NC(=O)[C@H](CC(C)C)NC(=O)[C@](C)(CC(C)C)NC(=O)[C@@H](NC(=O)[C@H](CO)NC(=O)[C@H](Cc2ccc(O)cc2)NC(=O)[C@H](CC(=O)O)NC(=O)[C@H](CO)NC(=O)[C@@H](NC(=O)[C@H](Cc2ccccc2)NC(=O)[C@@H](NC(=O)CNC(=O)[C@H](CCC(N)=O)NC(=O)C(C)(C)NC(=O)[C@@H](N)Cc2ccc(O)cc2)[C@@H](C)O)[C@@H](C)O)[C@@H](C)CC)C(=O)N[C@@H](C)C(=O)N[C@@H](CCC(N)=O)C(=O)N1)C(=O)N[C@@H](CCC(=O)O)C(=O)N[C@@H](Cc1ccc(O)cc1)C(=O)N[C@@H](CC(C)C)C(=O)N[C@@H](CC(C)C)C(=O)N[C@@H](CCC(=O)O)C(=O)NCC(=O)NCC(=O)N1CCC[C@H]1C(=O)N[C@@H](CO)C(=O)N[C@@H](CO)C(=O)NCC(=O)N[C@@H](C)C(=O)N1CCC[C@H]1C(=O)N1CCC[C@H]1C(=O)N1CCC[C@H]1C(=O)N[C@@H](CO)C(N)=O [WX001],–
–,–,–,–,30 nM,–,–,–,69 nM,–,–,5.1 µM·h,54 nM,24 h,52 h,CC[C@H](C)[C@H](NC(=O)[C@H](Cc1ccccc1)NC(=O)[C@H](C)NC(=O)C(C)(C)NC(=O)[C@@H]1CCCCNC(=O)CN(C(=O)COCCOCCNC(=O)COCCOCCNC(=O)CC[C@H](NC(=O)CCCCCCCCCCCCCCCCCCC(=O)O)C(=O)O)CC(=O)NCCCC[C@H](NC(=O)[C@H](CC(=O)O)NC(=O)[C@H](CC(C)C)NC(=O)[C@](C)(CC(C)C)NC(=O)[C@@H](NC(=O)[C@H](CO)NC(=O)[C@H](Cc2ccc(O)cc2)NC(=O)[C@H](CC(=O)O)NC(=O)[C@H](CO)NC(=O)[C@@H](NC(=O)[C@H](Cc2ccccc2)NC(=O)[C@@H](NC(=O)CNC(=O)[C@H](CCC(N)=O)NC(=O)C(C)(C)NC(=O)[C@@H](N)Cc2ccc(O)cc2)[C@@H](C)O)[C@@H](C)O)[C@@H](C)CC)C(=O)N[C@@H](CCCCN)C(=O)N[C@@H](C)C(=O)N1)C(=O)N[C@@H](CCC(=O)O)C(=O)N[C@@H](Cc1ccc(O)cc1)C(=O)N[C@@H](CC(C)C)C(=O)N[C@@H](CC(C)C)C(=O)N[C@@H](CCC(=O)O)C(=O)NCC(=O)NCC(=O)N1CCC[C@H]1C(=O)N[C@@H](CO)C(=O)N[C@@H](CO)C(=O)NCC(=O)N[C@@H](C)C(=O)N1CCC[C@H]1C(=O)N1CCC[C@H]1C(=O)N1CCC[C@H]1C(=O)N[C@@H](CO)C(N)=O [WX002],AUC(0-t) [4]: 1.06 µM·h; Tmax [4]: 20 h; half-life [4]: 14 h; AUC(0-t) ([5]; mouse): 2.01 µM·h; Tmax ([5]; mouse): 8 h; half-life ([5]; mouse): 10 h
0.063 nM,0.14 nM,1.4 nM,1.21 µM·h,26 nM,28 h,23 h,2.13 µM·h,72 nM,12 h,15 h,5.81 µM·h,43 nM,48 h,100 h,CC[C@H](C)[C@H](NC(=O)[C@H](Cc1ccccc1)NC(=O)[C@H](C)NC(=O)C(C)(C)NC(=O)[C@H](CCC(N)=O)NC(=O)[C@H](C)NC(=O)[C@H](CCCCN)NC(=O)[C@H](CCCCN)NC(=O)[C@H](CC(=O)O)NC(=O)[C@H](CC(C)C)NC(=O)[C@](C)(CC(C)C)NC(=O)[C@@H](NC(=O)[C@H](CO)NC(=O)[C@H](Cc1ccc(O)cc1)NC(=O)[C@H](CC(=O)O)NC(=O)[C@H](CO)NC(=O)[C@@H](NC(=O)[C@H](Cc1ccccc1)NC(=O)[C@@H](NC(=O)CNC(=O)[C@H](CCC(N)=O)NC(=O)C(C)(C)NC(=O)[C@@H](N)Cc1ccc(O)cc1)[C@@H](C)O)[C@@H](C)O)[C@@H](C)CC)C(=O)N[C@@H](CCC(=O)O)C(=O)N[C@H]1CCCCNC(=O)CN(C(=O)COCCOCCNC(=O)COCCOCCNC(=O)CC[C@H](NC(=O)CCCCCCCCCCCCCCCCCCC(=O)O)C(=O)O)CC(=O)NCCCC[C@@H](C(=O)NCC(=O)NCC(=O)N2CCC[C@H]2C(=O)N[C@@H](CO)C(=O)N[C@@H](CO)C(=O)NCC(=O)N[C@@H](C)C(=O)N2CCC[C@H]2C(=O)N2CCC[C@H]2C(=O)N2CCC[C@H]2C(=O)N[C@@H](CO)C(N)=O)NC(=O)[C@H](CC(C)C)NC(=O)[C@H](CC(C)C)NC1=O [WX005],–
